Legend:
CCRF-CEM = assay: NCI-60 growth inhibition: CCRF-CEM (Leukemia); type: cell-based, human
HL-60(TB) = assay: NCI-60 growth inhibition: HL-60(TB) (Leukemia); type: cell-based, human; settings: HL-60(TB) (Leukemia); read-out: GI50
K-562 = assay: NCI-60 growth inhibition: K-562 (Leukemia); type: cell-based, human
MOLT-4 = assay: NCI-60 growth inhibition: MOLT-4 (Leukemia); type: cell-based, human
RPMI-8226 = assay: NCI-60 growth inhibition: RPMI-8226 (Leukemia); type: cell-based, human
SR = assay: NCI-60 growth inhibition: SR (Leukemia); type: cell-based, human
EKVX = assay: NCI-60 growth inhibition: EKVX (Non-Small-Cell Lung Cancer); type: cell-based, human
HOP-92 = assay: NCI-60 growth inhibition: HOP-92 (Non-Small-Cell Lung Cancer); type: cell-based, human
NCI-H23 = assay: NCI-60 growth inhibition: NCI-H23 (Non-Small-Cell Lung Cancer); type: cell-based, human
NCI-H460 = assay: NCI-60 growth inhibition: NCI-H460 (Non-Small-Cell Lung Cancer); type: cell-based, human
COLO 205 = assay: NCI-60 growth inhibition: COLO 205 (Colon Cancer); type: cell-based, human
HCT-15 = assay: NCI-60 growth inhibition: HCT-15 (Colon Cancer); type: cell-based, human
HT29 = assay: NCI-60 growth inhibition: HT29 (Colon Cancer); type: cell-based, human
SW-620 = assay: NCI-60 growth inhibition: SW-620 (Colon Cancer); type: cell-based, human
SF-268 = assay: NCI-60 growth inhibition: SF-268 (CNS Cancer); type: cell-based, human
SF-539 = assay: NCI-60 growth inhibition: SF-539 (CNS Cancer); type: cell-based, human
SNB-19 = assay: NCI-60 growth inhibition: SNB-19 (CNS Cancer); type: cell-based, human
SNB-75 = assay: NCI-60 growth inhibition: SNB-75 (CNS Cancer); type: cell-based, human
U251 = assay: NCI-60 growth inhibition: U251 (CNS Cancer); type: cell-based, human
LOX IMVI = assay: NCI-60 growth inhibition: LOX IMVI (Melanoma); type: cell-based, human
MALME-3M = assay: NCI-60 growth inhibition: MALME-3M (Melanoma); type: cell-based, human
M14 = assay: NCI-60 growth inhibition: M14 (Melanoma); type: cell-based, human
MDA-MB-435 = assay: NCI-60 growth inhibition: MDA-MB-435 (Melanoma); type: cell-based, human
SK-MEL-2 = assay: NCI-60 growth inhibition: SK-MEL-2 (Melanoma); type: cell-based, human
SK-MEL-28 = assay: NCI-60 growth inhibition: SK-MEL-28 (Melanoma); type: cell-based, human
SK-MEL-5 = assay: NCI-60 growth inhibition: SK-MEL-5 (Melanoma); type: cell-based, human
UACC-257 = assay: NCI-60 growth inhibition: UACC-257 (Melanoma); type: cell-based, human
UACC-62 = assay: NCI-60 growth inhibition: UACC-62 (Melanoma); type: cell-based, human
IGROV1 = assay: NCI-60 growth inhibition: IGROV1 (Ovarian Cancer); type: cell-based, human
OVCAR-3 = assay: NCI-60 growth inhibition: OVCAR-3 (Ovarian Cancer); type: cell-based, human
OVCAR-4 = assay: NCI-60 growth inhibition: OVCAR-4 (Ovarian Cancer); type: cell-based, human
OVCAR-5 = assay: NCI-60 growth inhibition: OVCAR-5 (Ovarian Cancer); type: cell-based, human
OVCAR-8 = assay: NCI-60 growth inhibition: OVCAR-8 (Ovarian Cancer); type: cell-based, human
786-0 = assay: NCI-60 growth inhibition: 786-0 (Renal Cancer); type: cell-based, human
A498 = assay: NCI-60 growth inhibition: A498 (Renal Cancer); type: cell-based, human
ACHN = assay: NCI-60 growth inhibition: ACHN (Renal Cancer); type: cell-based, human
CAKI-1 = assay: NCI-60 growth inhibition: CAKI-1 (Renal Cancer); type: cell-based, human
RXF 393 = assay: NCI-60 growth inhibition: RXF 393 (Renal Cancer); type: cell-based, human
SN12C = assay: NCI-60 growth inhibition: SN12C (Renal Cancer); type: cell-based, human
TK-10 = assay: NCI-60 growth inhibition: TK-10 (Renal Cancer); type: cell-based, human
UO-31 = assay: NCI-60 growth inhibition: UO-31 (Renal Cancer); type: cell-based, human
PC-3 = assay: NCI-60 growth inhibition: PC-3 (Prostate Cancer); type: cell-based, human
DU-145 = assay: NCI-60 growth inhibition: DU-145 (Prostate Cancer); type: cell-based, human
MCF7 = assay: NCI-60 growth inhibition: MCF7 (Breast Cancer); type: cell-based, human
MDA-MB-231/ATCC = assay: NCI-60 growth inhibition: MDA-MB-231/ATCC (Breast Cancer); type: cell-based, human
HS 578T = assay: NCI-60 growth inhibition: HS 578T (Breast Cancer); type: cell-based, human
BT-549 = assay: NCI-60 growth inhibition: BT-549 (Breast Cancer); type: cell-based, human
T-47D = assay: NCI-60 growth inhibition: T-47D (Breast Cancer); type: cell-based, human
MDA-MB-468 = assay: NCI-60 growth inhibition: MDA-MB-468 (Breast Cancer); type: cell-based, human; settings: MDA-MB-468 (Breast Cancer); read-out: GI50
[1] = system: MV4-11 cell line (myelomonocytic leukemia); settings: MV4-11 cells, 24 h, MMB-TDZD analogs (Table 2)
HCT-116 = assay: NCI-60 growth inhibition: HCT-116 (Colon Cancer); settings: HCT-116 (Colon Cancer)
NCI-H522 = assay: NCI-60 growth inhibition: NCI-H522 (Non-Small-Cell Lung Cancer); settings: NCI-H522 (Non-Small-Cell Lung Cancer)

## C=C1C(=O)O[C@H]2[C@H]1CC/C(COC(=O)NCc1ccc(Cn3c(=O)sn(CCCl)c3=O)cc1)=C\CC[C@@]1(C)O[C@@H]21 [BSK-140]
CCRF-CEM
  GI50: 1.73 µM
HL-60(TB)
  GI50: 1.91 µM
K-562
  GI50: 2.07 µM
MOLT-4
  GI50: 1.85 µM
RPMI-8226
  GI50: 2.37 µM
SR
  GI50: 1.48 µM
EKVX
  GI50: 1.99 µM
HOP-92
  GI50: 1.5 µM
NCI-H23
  GI50: 2.18 µM
NCI-H460
  GI50: 5.1 µM
COLO 205
  GI50: 1.84 µM
HCT-15
  GI50: 1.85 µM
HT29
  GI50: 2.16 µM
SW-620
  GI50: 1.17 µM
SF-268
  GI50: 3.73 µM
SF-539
  GI50: 1.82 µM
SNB-19
  GI50: 11.9 µM
SNB-75
  GI50: 7.65 µM
U251
  GI50: 6.79 µM
LOX IMVI
  GI50: 1.69 µM
MALME-3M
  GI50: 1.72 µM
M14
  GI50: 1.82 µM
MDA-MB-435
  GI50: 1.74 µM
SK-MEL-2
  GI50: 10.6 µM
SK-MEL-28
  GI50: 1.74 µM
SK-MEL-5
  GI50: 1.7 µM
UACC-257
  GI50: 1.85 µM
UACC-62
  GI50: 1.86 µM
IGROV1
  GI50: 2.5 µM
OVCAR-3
  GI50: 1.53 µM
OVCAR-4
  GI50: 1.92 µM
OVCAR-5
  GI50: 1.97 µM
OVCAR-8
  GI50: 2.04 µM
786-0
  GI50: 1.79 µM
A498
  GI50: 11.5 µM
ACHN
  GI50: 1.54 µM
CAKI-1
  GI50: 1.76 µM
RXF 393
  GI50: 1.18 µM
SN12C
  GI50: 2.01 µM
TK-10
  GI50: 1.77 µM
UO-31
  GI50: 1.65 µM
PC-3
  GI50: 8.09 µM
DU-145
  GI50: 1.72 µM
MCF7
  GI50: 1.91 µM
MDA-MB-231/ATCC
  GI50: 1.89 µM
HS 578T
  GI50: 12.1 µM
BT-549
  GI50: 1.45 µM
T-47D
  GI50: 1.97 µM
MDA-MB-468
  GI50: 1.78 µM
[1]; 7AAD
  LD50, 7AAD (μM) 24 h: 4.42 µM
[1]; Alamar blue
  LD50, Alamar blue (μM) 24 h: 1.50 µM
[1]; YOPRO
  LD50, YOPRO (μM) 24 h: 2.88 µM
HCT-116
  GI50: 1.62 µM
NCI-H522
  GI50: 1.38 µM

Reference: US20230125667A1, “NOVEL TDZD ANALOGS AS AGENTS THAT DELAY, PREVENT, OR REVERSE AGE-ASSOCIATED DISEASES AND AS ANTI-CANCER AND ANTILEUKEMIC AGENTS” (United States Government as represented by the Department …, priority 2020, published 2023)
